The values below come from patent US20230348376A1 (TEIJIN PHARMA LIMITED, priority 2020, published 2023).

The target of this experiment is T1, human VDR (Homo sapiens, UniProt P11473).
T1 sequence (P11473 1-427): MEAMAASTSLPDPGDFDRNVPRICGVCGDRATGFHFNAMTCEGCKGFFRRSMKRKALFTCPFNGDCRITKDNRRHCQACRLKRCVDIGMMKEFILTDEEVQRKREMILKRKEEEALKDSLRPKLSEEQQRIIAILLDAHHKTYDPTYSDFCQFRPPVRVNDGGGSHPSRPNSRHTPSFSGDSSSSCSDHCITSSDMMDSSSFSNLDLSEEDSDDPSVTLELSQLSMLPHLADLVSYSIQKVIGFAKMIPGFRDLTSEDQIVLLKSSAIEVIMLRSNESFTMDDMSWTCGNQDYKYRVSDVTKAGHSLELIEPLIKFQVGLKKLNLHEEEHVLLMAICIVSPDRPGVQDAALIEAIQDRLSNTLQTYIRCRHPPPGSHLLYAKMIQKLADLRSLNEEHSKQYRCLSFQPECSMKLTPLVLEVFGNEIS
T1 sequence (P19793 1-462 partner): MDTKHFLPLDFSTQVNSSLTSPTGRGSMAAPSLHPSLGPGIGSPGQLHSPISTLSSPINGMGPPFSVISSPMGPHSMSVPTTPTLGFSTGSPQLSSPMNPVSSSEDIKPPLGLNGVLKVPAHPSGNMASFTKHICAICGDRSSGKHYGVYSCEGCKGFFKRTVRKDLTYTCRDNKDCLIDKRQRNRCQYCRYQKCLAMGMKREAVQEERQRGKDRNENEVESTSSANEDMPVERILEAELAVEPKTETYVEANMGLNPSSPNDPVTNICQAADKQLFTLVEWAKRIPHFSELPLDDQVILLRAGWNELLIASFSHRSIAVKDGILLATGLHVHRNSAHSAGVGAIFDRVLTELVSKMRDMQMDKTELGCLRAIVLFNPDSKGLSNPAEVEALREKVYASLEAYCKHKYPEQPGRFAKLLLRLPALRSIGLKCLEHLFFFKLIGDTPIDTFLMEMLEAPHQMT
Description: Evaluation of VDR transcription activity in human osteoblasts (HOS cells), luciferase reporter. Conditions: Activity (EC50, VDR transcription activity), HOS cells transfected with human VDR, human RXRα and DR3 luciferase reporter; 21 hours. A general note: A reporter such as luciferase makes a cellular process visible.
`C=C1/C(=C\C=C2/CCC[C@]3(C)[C@@H]([C@@H](C)CN4CC[C@@H](C(F)F)C4)CC[C@@H]23)C[C@@H](O)C[C@@H]1O` [Compound B096, (1R,3S,Z)-5-(2-((1R,3aS,7aR,E)-1-((R)-1-((R)-3-(difluoromethyl)pyrrolidin-1-yl)propan-2-yl)-7a-methyloctahydro-4H-inden-4-ylidene)ethylidene)-4-methylenecyclohexane-1,3-diol] showed an EC50 of 1 to 10 nM.

Compound `C=C1/C(=C\C=C2/CCC[C@]3(C)[C@@H]([C@H](C)CN4CCC(O)(C(F)(F)F)CC4)CC[C@@H]23)C[C@@H](O)C[C@@H]1O` [Compound C001, (1R,3S,Z)-5-(2-((1R,3aS,7aR,E)-1-((S)-1-(4-hydroxy-4-(trifluoromethyl)piperidin-1-yl)propan-2-yl)-7a-methyloctahydro-4H-inden-4-ylidene)ethylidene)-4-methylenecyclohexane-1,3-diol] yielded an EC50 of 1 to 10 nM. For `C=C1/C(=C\C=C2/CCC[C@]3(C)[C@@H]([C@H](C)CN4CCC(O)(C(F)(F)F)CC4)CC[C@@H]23)C[C@@H](O)[C@H](C)[C@@H]1O` [Compound C003, (1R,2S,3S,Z)-5-(2-((1R,3aS,7aR,E)-1-((S)-1-(4-hydroxy-4-(trifluoromethyl)piperidin-1-yl)propan-2-yl)-7a-methyloctahydro-4H-inden-4-ylidene)ethylidene)-2-methyl-4-methylenecyclohexane-1,3-diol] the value was 10 to 100 nM; for `C=C1[C@H](O)CC(=C/C=C2\CCC[C@]3(C)[C@@H]([C@H](C)CN4CCC(O)(C(F)(F)F)CC4)CC[C@@H]23)C[C@H]1O` [Compound C004, (1R,3R)-5-(2-((1R,3aS,7aR,E)-1-((S)-1-(4-hydroxy-4-(trifluoromethyl)piperidin-1-yl)propan-2-yl)-7a-methyloctahydro-4H-inden-4-ylidene)ethylidene)-2-methylenecyclohexane-1,3-diol], 10 to 100 nM. Under `C=C1[C@H](O)CC(=C/C=C2\CCC[C@]3(C)[C@@H]([C@H](C)CN4CCC(C(F)(F)F)CC4)CC[C@@H]23)C[C@H]1O` [Compound C009, (1R,3R)-5-(2-((1R,3aS,7aR,E)-7a-methyl-1-((S)-1-(4-(trifluoromethyl)piperidin-1-yl)propan-2-yl)octahydro-4H-inden-4-ylidene)ethylidene)-2-methylenecyclohexane-1,3-diol] stands 10 to 100 nM. For `C=C1/C(=C\C=C2/CCC[C@]3(C)[C@@H]([C@H](C)CN4CCC(C(F)(F)F)CC4)CC[C@@H]23)C[C@@H](O)[C@H](C)[C@@H]1O` [Compound C010, (1R,2S,3S,Z)-2-methyl-5-(2-((1R,3aS,7aR,E)-7a-methyl-1-((S)-1-(4-(trifluoromethyl)piperidin-1-yl)propan-2-yl)octahydro-4H-inden-4-ylidene)ethylidene)-4-methylenecyclohexane-1,3-diol] the value was 10 to 100 nM; for `C=C1/C(=C\C=C2/CCC[C@]3(C)[C@@H]([C@@H](C)CN4CCC(C(F)(F)F)CC4)CC[C@@H]23)C[C@@H](O)C[C@@H]1O` [Compound C011, (1R,3S,Z)-5-(2-((1R,3aS,7aR,E)-7a-methyl-1-((R)-1-(4-(trifluoromethyl)piperidin-1-yl)propan-2-yl)octahydro-4H-inden-4-ylidene)ethylidene)-4-methylenecyclohexane-1,3-diol], 1 to 10 nM; for `C=C1/C(=C\C=C2/CCC[C@]3(C)[C@@H]([C@@H](C)CN4CCC(C(F)(F)F)CC4)CC[C@@H]23)C[C@@H](O)[C@H](C)[C@@H]1O` [Compound C012, (1R,2S,3S,Z)-2-methyl-5-(2-((1R,3aS,7aR,E)-7a-methyl-1-((R)-1-(4-(trifluoromethyl)piperidin-1-yl)propan-2-yl)octahydro-4H-inden-4-ylidene)ethylidene)-4-methylenecyclohexane-1,3-diol], 1 to 10 nM. Turning to `C=C1[C@H](O)CC(=C/C=C2\CCC[C@]3(C)[C@@H]([C@H](C)CN4CCC(C(F)F)CC4)CC[C@@H]23)C[C@H]1O` [Compound C015], the EC50 was in the range of 10 to 100 nM. With `C=C1/C(=C\C=C2/CCC[C@]3(C)[C@@H]([C@H](C)CN4CCC(C(F)F)CC4)CC[C@@H]23)C[C@@H](O)[C@H](C)[C@@H]1O` [Compound C016, (1R,2S,3S,Z)-5-(2-((1R,3aS,7aR,E)-1-((S)-1-(4-(difluoromethyl)piperidin-1-yl)propan-2-yl)-7a-methyloctahydro-4H-inden-4-ylidene)ethylidene)-2-methyl-4-methylenecyclohexane-1,3-diol], the EC50 lay within 100 to 1000 nM. For `C=C1/C(=C\C=C2/CCC[C@]3(C)[C@@H]([C@@H](C)CN4CCC(C(F)F)CC4)CC[C@@H]23)C[C@@H](O)C[C@@H]1O` [Compound C017, (1R,3S,Z)-5-(2-((1R,3aS,7aR,E)-1-((R)-1-(4-(difluoromethyl)piperidin-1-yl)propan-2-yl)-7a-methyloctahydro-4H-inden-4-ylidene)ethylidene)-4-methylenecyclohexane-1,3-diol] the value was 10 to 100 nM; for `C[C@@H](CN1CCC(C(F)F)CC1)[C@H]1CC[C@H]2/C(=C/C=C3C[C@@H](O)C[C@H](O)C3)CCC[C@]12C` [Compound C018, (1R,3R)-5-(2-((1R,3aS,7aR,E)-1-((R)-1-(4-(difluoromethyl)piperidin-1-yl)propan-2-yl)-7a-methyloctahydro-4H-inden-4-ylidene)ethylidene)cyclohexane-1,3-diol], 10 to 100 nM. For `C=C1/C(=C\C=C2/CCC[C@]3(C)[C@@H]([C@@H](C)CN4CCC(C(F)F)CC4)CC[C@@H]23)C[C@@H](O)[C@H](C)[C@@H]1O` [Compound C020, (1R,2S,3S,Z)-5-(2-((1R,3aS,7aR,E)-1-((R)-1-(4-(difluoromethyl)piperidin-1-yl)propan-2-yl)-7a-methyloctahydro-4H-inden-4-ylidene)ethylidene)-2-methyl-4-methylenecyclohexane-1,3-diol] the value was 1 to 10 nM; for `C=C1/C(=C\C=C2/CCC[C@]3(C)[C@@H]([C@H](C)CN4CCC(O)(C(F)F)CC4)CC[C@@H]23)C[C@@H](O)C[C@@H]1O` [Compound C021, (1R,3S,Z)-5-(2-((1R,3aS,7aR,E)-1-((S)-1-(4-(difluoromethyl)-4-hydroxypiperidin-1-yl)propan-2-yl)-7a-methyloctahydro-4H-inden-4-ylidene)ethylidene)-4-methylenecyclohexane-1,3-diol], 100 to 1000 nM; for `C=C1[C@H](O)CC(=C/C=C2\CCC[C@]3(C)[C@@H]([C@H](C)CN4CCC(O)(C(F)F)CC4)CC[C@@H]23)C[C@H]1O` [Compound C022, (1R,3R)-5-(2-((1R,3aS,7aR,E)-1-((S)-1-(4-(difluoromethyl)-4-hydroxypiperidin-1-yl)propan-2-yl)-7a-methyloctahydro-4H-inden-4-ylidene)ethylidene)-2-methylenecyclohexane-1,3-diol], 10 to 100 nM. For `C=C1/C(=C\C=C2/CCC[C@]3(C)[C@@H]([C@H](C)CN4CCC(O)(C(F)F)CC4)CC[C@@H]23)C[C@@H](O)[C@H](C)[C@@H]1O` [Compound C023, (1R,2S,3S,Z)-5-(2-((1R,3aS,7aR,E)-1-((S)-1-(4-(difluoromethyl)-4-hydroxypiperidin-1-yl)propan-2-yl)-7a-methyloctahydro-4H-inden-4-ylidene)ethylidene)-2-methyl-4-methylenecyclohexane-1,3-diol] the value was 1 to 10 nM.

A word on the EC50: it is the concentration giving half of the maximal effect.
